# Laboratory results reported in patent US11344534B2, “Cholinergic agonism for the treatment of pancreatic cancer” (priority 2017, dated 2022).
# Entries after “also recorded” stand apart in the source; their conditions may differ.
# How the values were obtained:
# [1] = system: Organoid cultures derived from LSL-K-Ras^G12D pancreata not treated by an Adeno-Cre virus; format: cell-based; settings: no Adeno-Cre virus (Kras not activated)
# human Panc1 cells = assay: Western blot of EGFR/MAPK and PI3K/AKT signaling, Panc1; format: cell-based; settings: for phosphorylation of EGFR, BRAF, ERK1/2, PI3K and AKT kinases (western blot): 72 hours; for ratios of p-EGFR/EGFR, p-BRAF/BRAF, p-ERK/ERK, p-PI3K/PI3K and p-AKT/AKT (densitometry): single agent alone
# Description: (§1) To analyze EGFR and the MAPK and PI3K-Akt pathway in human and murine pancreatic cancer cell lines, cells were grown in 12-well plate to around ˜70% confluent, changed the 0.5% FBS medium, added the drugs respectively and incubated them for further 72 hrs incubation in a typical CO2 incubator (˜20% O2). After removing the medium, cells were washed twice with PBS, and protein extraction was performed on ice using RIPA buffer with protease inhibitor (Complete) (Roche) cocktail and phosphatase inhibitor (phosSTOP) (Roche). Protein samples were subsequently separated in 10% Bis-Tris Gel NuPAGE® electrophoresis using MES SDS Running Buffer (Invitrogen, CA, USA). After transfer to nitrocellulose, membranes were blocked with 5% BSA, and samples were probed with the following primary antibodies: p-EGFR (Cell Signaling), EGFR (Cell Signaling), p-BRAF (Cell Signaling), BRAF (Cell Signaling), p-ERK1/2 (phosphorylated p44/42 MAPK) (Thr202/Tyr204) (Cell Signaling), ERK1/2 (p44/42 MAPK) (Thr202/Tyr204) (Cell Signaling), p-PI3K (Cell Signaling), PI3K (Cell Signaling), p-Akt (Cell Signaling), Akt (Cell Signaling), and β-actin (Cell Signaling) followed by horseradish peroxidase-coupled secondary antibody. Immunoreactive bands were visualized using 5-bromo-4-chloro-3-indolyl phosphate/nitro blue tetrazolium and bands were quantified with ImageJ.
# (§2) To analyze EGFR, MAPK and PI3K-AKT pathways in human and murine pancreatic cancer cell lines, cells were grown in 12-well culture plates to ˜70% confluency. The medium was then changed to 0.5% FBS medium, the respective drugs were added, and they were incubated for an additional 72 hours in a CO2 incubator (˜5% CO2). After removing the medium, cells were washed twice with PBS, and protein extraction was performed on ice using RIPA buffer with protease inhibitor (Complete, Roche) cocktail and a phosphatase inhibitor (phosSTOP, Roche). Protein samples were subsequently separated by 10% Bis-Tris Gel NuPAGE® electrophoresis using MES SDS Running Buffer (Invitrogen, CA, USA). After transfer to nitrocellulose, membranes were blocked with 5% BSA, and samples were probed with the following primary antibodies: p-EGFR (Cell Signaling), EGFR (Cell Signaling), p-BRAF (Cell Signaling), BRAF (Cell Signaling), p-ERK1/2 (phosphorylated p44/42 MAPK) (Thr202/Tyr204) (Cell Signaling), ERK1/2 (p44/42 MAPK) (Thr202/Tyr204) (Cell Signaling), p-PI3K (Cell Signaling), PI3K (Cell Signaling), p-AKT (Cell Signaling), AKT (Cell Signaling), and β-actin (Cell Signaling) followed by horseradish peroxidase-coupled secondary antibody. Immunoreactive bands were visualized using 5-bromo-4-chloro-3-indolyl phosphate/nitro blue tetrazolium and bands were quantified with ImageJ.
# [2] = system: Kras^+/LSL-G12D mutant spheres; assay: 3D Matrigel sphere culture of Kras mutant (Ad-Cre) pancreatic acinar cells; format: cell-based, mouse; settings: for number of spheres / size of spheres: day 5, pilocarpine 1 mM, scopolamine 10 μM, McN-34A 50 μM, pirenzepine 50 μM, vs controls; for sphere formation and growth of Kras mutant spheres: oncogenic K-Ras allele activated by adeno-Cre virus
# Description: Cholinergic stimulation could in theory promote cancer indirectly through effects on stromal cells, or directly through effects on pancreatic epithelial cells. To determine whether cholinergic stimulation promoted tumor development in part through muscarinic receptors on cancer cells, the sphere forming capacity of K-Ras^+/LSL-G12D mutant pancreatic acinar cells was assessed in a 3D Matrigel culture system, with or without muscarinic stimulation. K-Ras^+/LSL-G12D mutant spheres were generated from K-Ras^+/LSL-G12D pancreatic acinar cells by treatment with adenoviral delivered Cre (Ad-Cre).
# 3D cultures were performed as described previously (Wescott et al., 2009). Organoids were cultured for 5 days before analysis. Adenoviral delivered Cre (Ad-Cre) was added to the cultures and medium was changed after 12 hours. […] Sphere size and […] were analyzed using ImageJ software.
# To determine whether cholinergic stimulation suppresses tumor development in part through specific muscarinic receptors on cancer cells, the sphere forming capacity of Kras^+/LSL-G12D pancreatic acinar cells in a 3D Matrigel culture system in the absence and presence of muscarinic agonists and antagonists was assessed. Kras^+/LSL-G12D mutant spheres were generated from Kras^+/LSL-G12D mice by delivery of an adenoviral Cre (Ad-Cre).
# 3D cultures were performed as described previously^18. Organoids were cultured for 5 days before analysis. Adenoviral delivered Cre (Ad-Cre) was added to the cultures and medium was changed after 12 hours. […] Sphere size and number were analyzed using ImageJ software.
# murine K8282 cells = assay: Western blot of EGFR/MAPK and PI3K/AKT signaling, K8282; format: cell-based, mouse; settings: for phosphorylation of EGFR, BRAF, ERK1/2, PI3K and AKT kinases (western blot): 72 hours; for ratios of p-EGFR/EGFR, p-BRAF/BRAF, p-ERK/ERK, p-PI3K/PI3K and p-AKT/AKT (densitometry): single agent alone
# Description: as §1, §2
# [3] = system: human PDAC cell lines (MiaPaca2, Panc1); assay: MTT assay, human PDAC cell lines; format: cell-based; settings: for proliferation (MTT assay): 72 hours, 0.5% FBS medium
# Description: (§3) Cell proliferation in each cell line was assessed with a 3-(4,5-dimethylthiazol-2yl)-2,5-diphenyltetrazolium bromide (MTT) assay kit (Sigma) in accordance with the manufacturer's instructions. 3×10^3 cells were grown in 96-well plate to around ˜70% confluent, changed the 0.5% FBS medium, added the drugs respectively and incubated them for further 72 hrs incubation in a typical CO2 incubator (˜20% O2). Treated cells were rinsed twice with PBS, incubated in 10 ll MTT solution for 4 hr at 37° C., and 100 uL DMSO was added to each well. The absorbance of each well was measured at 570 nm using Tilter-Tech 96-well multiscanner (Becton Dickinson, Heidelberg, Germany). The relative number of viable cells compared with the number of cells without drug treatment was expressed as percent cell viability using the following formula:
# (§4) Cell proliferation in each cell line was assessed with a 3-(4,5-dimethylthiazol-2yl)-2,5-diphenyltetrazolium bromide (MTT) assay kit (Sigma) in accordance with the manufacturer's instructions. 3×10^3 cells were grown in 96-well plate to ˜70% confluency, the media was changed to 0.5% FBS medium, the respective drugs were added, and they were incubated for an additional 72 hours in a CO2 incubator (˜5% CO2). Treated cells were rinsed twice with PBS, incubated in 10 ul MTT (5 mg/ml PBS) solution for 4 hours at 37° C., and 100 uL DMSO was then added to each well. The absorbance of each well was measured at 570 nm using a Tilter-Tech 96-well multiscanner (Becton Dickinson, Heidelberg, Germany). The relative number of viable cells compared with the number of cells without drug treatment was expressed as percent cell viability using the following formula: cell viability (%)=A570 of treated cells/A570 of untreated cells.
# [4] = system: murine PDAC cell lines (Panc02, K8282); assay: MTT assay, murine PDAC cell lines; format: cell-based, mouse; settings: for proliferation (MTT assay): 72 hours, 0.5% FBS medium
# Description: as §3, §4
# KPC mice = KPC mice with established PDAC treated with gemcitabine with or without bethanechol; format: in vivo, mouse; settings: KPC mice
# Source text: Next, the role of cholinergic signaling in advanced pancreatic cancer was investigated using the genetically engineered KPC (K-Ras^+/LSL-G12D;p53^+/R172H;Pdx-1-Cre) mouse model, which develops ductal adenocarcinoma by 17-19 weeks (Olive et al., 2009, Hingorani et al., 2005).
# K-Ras^+/LSL-G12D, p53^+/R172H, and Pdx-1-Cre mice were provided by Dr. Kenneth Olive (Columbia University). M1RKO mice were purchased from the Jackson Laboratory. KC mice and KPC mice were crossed with M1RKO mice. For several experiments, KC mice received pyloroplasty with or without vagotomy at 8 weeks and KC+VxPP mice were treated with or without bethanechol (400 μg/ml) after surgery immediately. They were sacrificed at 20 weeks. In addition, KPC mice were treated with gemcitabine biweekly and with or without bethanechol when the tumor size of 3-5 mm detected using ultrasound. They were sacrificed when the mice were moribund. For liver metastatic experiments, WT type C57/B6 mice received spleen injection and hemi-splenectomy. […] They were sacrificed when the mice were moribund.
# Next, the role of cholinergic signaling in established PDAC was investigated using the KPC mouse model, which develops PDAC at a median age of 17-19 weeks^2, 29. KPC mice with pancreatic tumors that measured 3-5 mm in diameter on ultrasound were randomized to treatment with gemcitabine (GEM) alone, or GEM+bethanechol (FIG. 8I).
# LSL-Kras^+/LSL-G12D, LSL-Trp53^+/R172H, and Pdx1-Cre mice were bred by Dr. Kenneth P. Olive and co-workers. Chrm1KO mice (C57BL/6-Chrm1tm1 Stl/J, (M1RKO) mice^1 were purchased from the Jackson Laboratory. KC mice and KPC mice were crossed with M1RKO mice. In the vagotomy experiments, KC mice received pyloroplasty with or without vagotomy at 8 weeks, and some KC+VxPP mice were treated with bethanechol ([…] in drinking water) immediately after surgery and then sacrificed at 20 weeks. KPC mice in treatment studies were palpated weekly for tumors in the pancreas. Once a tumor was suspected, KPC mice were screened by VEVO 2100—Ultrasound Imaging System (FUJIFILM VisualSonics) for pancreatic cancer. KPC mice were treated with gemcitabine, given by i.p. injection 100 mg/kg biweekly, with or without bethanechol, when a tumor size of 3-5 mm was detected using ultrasound. Mice were sacrificed when the mice were moribund. NOD/SCID mice were implanted with Panc1 cells subcutaneously and sacrificed at 30 days after implantation. For liver metastatic experiments, WT type C57/B6 mice received a splenic injection of labeled Panc02 cells, followed by hemi-splenectomy. The mice were then divided into three groups. […] Mice were then sacrificed when moribund. At necropsy, hepatic metastases that could clearly be identified as tumor nodules on gross inspection were separated. All animal studies and procedures were approved by the IACUC committee at Columbia University. All mice were bred under specific pathogen free conditions. Comparisons were made with age- and sex-matched control animals.
# CD44, p-EGFR, p-PI3K, p-ERK, and Ki67 positive cells were quantified in at least five high power fields from at least 3 mice per group. Total cells per field were counted via morphometric analysis using ImageJ and the ratio of positive cells to total cell number calculated.
# CHRM1 [5] = assay: qRT-PCR of muscarinic receptor expression, human PDAC cell lines; format: cell-based; settings: human PDAC cell lines (MiaPaca2 and Panc1), compared to control
# Chrm1 [6] = assay: qRT-PCR of muscarinic receptor expression, murine PDAC cell lines; format: cell-based, mouse; settings: murine PDAC cell lines (Panc02 and K8282), compared to control
structure (smiles),measurement,setting,value
C[N+](C)(C)CC#CCOC(=O)Nc1cccc(Cl)c1.[Cl-] [McN-34A],sphere forming capacity / growth of WT spheres,[1],increased
same,"phosphorylation of EGFR, BRAF, ERK1/2, PI3K and AKT kinases (western blot)",human Panc1 cells,significantly less phosphorylated
same,"ratios of p-EGFR/EGFR, p-BRAF/BRAF, p-ERK/ERK, p-PI3K/PI3K and p-AKT/AKT (densitometry)",human Panc1 cells,significantly decreased
same,number of spheres,[2],significantly fewer
same,size of spheres,[2],smaller
same,sphere formation and growth of Kras mutant spheres,[2],suppressed
same,"phosphorylation of EGFR, BRAF, ERK1/2, PI3K and AKT kinases (western blot)",murine K8282 cells,significantly less phosphorylated
same,"ratios of p-EGFR/EGFR, p-BRAF/BRAF, p-ERK/ERK, p-PI3K/PI3K and p-AKT/AKT (densitometry)",murine K8282 cells,significantly decreased
same,proliferation (MTT assay),[3],suppressed
same,increase in proliferation due to muscarinic antagonists,[3]; agonist added to antagonist,blocked; also recorded: inhibited to some extent
same,proliferation (MTT assay),[4],suppressed
same,increase in proliferation due to muscarinic antagonists,[4]; agonist added to antagonist,blocked; also recorded: inhibited to some extent
Nc1ccn([C@@H]2O[C@H](CO)[C@@H](O)C2(F)F)c(=O)n1 [GEM],overall survival,KPC mice; GEM with or without bethanechol,29 days
same,overall survival,"KPC mice; tumors 3-5 mm at enrollment, GEM biweekly i.p. with or without bethanechol",29 days
CN1CCN(CC(=O)N2c3ccccc3C(=O)Nc3cccnc32)CC1 [pirenzepine],sphere forming capacity / growth of WT spheres,[1],significantly prevents
same,"phosphorylation of EGFR, BRAF, ERK1/2, PI3K and AKT kinases (western blot)",human Panc1 cells,significantly more phosphorylated
same,"ratios of p-EGFR/EGFR, p-BRAF/BRAF, p-ERK/ERK, p-PI3K/PI3K and p-AKT/AKT (densitometry)",human Panc1 cells,increased
same,number of spheres,[2],significantly more
same,size of spheres,[2],larger
same,sphere formation and growth of Kras mutant spheres,[2],stimulated
same,"phosphorylation of EGFR, BRAF, ERK1/2, PI3K and AKT kinases (western blot)",murine K8282 cells,significantly more phosphorylated
same,"ratios of p-EGFR/EGFR, p-BRAF/BRAF, p-ERK/ERK, p-PI3K/PI3K and p-AKT/AKT (densitometry)",murine K8282 cells,increased
same,proliferation (MTT assay),[3],increased; also recorded: stimulated
same,proliferation (MTT assay),[4],increased; also recorded: stimulated
CN1[C@@H]2C[C@@H](OC(=O)[C@H](CO)c3ccccc3)C[C@H]1[C@@H]1O[C@@H]12 [scopolamine],"phosphorylation of EGFR, BRAF, ERK1/2, PI3K and AKT kinases (western blot)",human Panc1 cells,significantly more phosphorylated
same,number of spheres,[2],significantly more; also recorded: increased
same,size of spheres,[2],larger
same,sphere formation and growth of Kras mutant spheres,[2],increase
same,"phosphorylation of EGFR, BRAF, ERK1/2, PI3K and AKT kinases (western blot)",murine K8282 cells,significantly more phosphorylated
same,Chrm1 expression,CHRM1 [5],increased; also recorded: higher
same,Chrm1 expression,Chrm1 [6],increased; also recorded: higher
same,proliferation (MTT assay),[3],increased; also recorded: stimulated
same,proliferation (MTT assay),[4],increased
